Assay results: US20080153792A1, “Drug Identification and Treatment Method” (priority 2006, published 2008)

Experiments:
[1] = tested on: DBA/1 mice, passive collagen-induced arthritis; assay: passive collagen-induced arthritis (anti-type II collagen antibodies); assay type: in vivo, mouse; conditions: 40 mg/kg/day oral gavage for 14 days
From the text: The capacity of formula 1 compounds to affect the course of arthritis in a passive collagen induced arthritis model of arthritis was examined essentially as previously described (E. Simelyte et al., Arthritis & Rheumatism, 52(6):1876-1884, 2005; Z. Han et al. Arthritis & Rheumatism 46(3):818-823 2002; H. Miyahara et. Clin. Immunol. Immunopathol., 69(1):69-76 1993). In this protocol, passive collagen-induced arthritis was induced in DBA/1 mice by administering anti-type II collagen antibodies, which induced an immune response against joint tissue in the animals. […] The severity of arthritis was assessed using a semiquantitative clinical scoring system. Groups of 8 animals per group were treated with 17α-ethynylandrost-5-ene-3β,7β,17β-triol at 40 mg/kg/day for 14 days or vehicle for 14 days by oral gavage. The vehicle was 30% cyclodextrin-sulfobutylether in water and the drug solution was vehicle with drug at 20 mg/mL.
The animals were examined by measuring ankle thickness and arthritis score (4-point/paw) with a higher score indicating a more severe arthritis. The experiment was terminated after about 14 days, and histology and gene expression measurements were performed. […] A semi-quantitative scoring system was used to access synovial inflammation, extraarticular inflammation, erosion and proteogylcan loss. […]

[2] = tested on: 8 week old db/db diabetic mice; assay: hyperinsulinemic-euglycemic clamp in db/db mice; assay type: in vivo, mouse; conditions: oral gavage 14 days; insulin 10 mU/kg/min
Protocol: Glucose lowering in 8 week old db/db diabetic mice. The hyperinsulinemic-euglycemic clamp protocol was conducted to measure insulin sensitivity in vivo. In this procedure, insulin was administered to raise the insulin concentration while glucose was infused to maintain euglycemia or a fixed, normal blood glucose level (about 180 mg/dL). […] The objective of this protocol was to investigate characterize the capacity of 17α-ethynylandrost-5-ene-3β,7β,17β-triol and androst-5-ene-3β,7β,16α,17β-tetrol to ameliorate systemic insulin resistance and improve whole body glucose disposal in the hyperinsulinemic-euglycemic clamp model. The degree of skeletal muscle and hepatic insulin sensitivity and tissue specific glucose uptake were also assessed. The animals were dosed daily by oral gavage for 14 days. On Day 10 of treatment catheters were implanted in the carotid artery and jugular vein. On the day of the clamp (day 14) the compound was administered at 7:30 am.
Body weight and glucose concentration were assessed on day 0, 7 and day 14 of treatment. On day 14 a euglycemic hyperinsulinemic clamp was performed. […] Plasma ^14C 2-deoxyglucose was assessed at 122, 125, 130, 135, 145 min. […]
Analysis was conducted as follows. Plasma samples were deproteinized with Ba(OH)2 (0.3 N) and ZnSO4 (0.3 N), dried and radioactivity was assessed on scintillation counter (Packard TRICARB 2900 TR, Meriden, Conn.). […] One supernatant was directly counted to determine radioactivity from both [14C] […] A second aliquot was treated with Ba(OH)2 and ZnSO4 to remove ^14C DGP and any tracer incorporated into glycogen and then counted to determine radioactivity from free [^14C]DG(2). [^14C]DGP was calculated as the difference between the two aliquots. […] Rg, an index of tissue specific glucose uptake was calculated as previously described (E. W. Kraegen et al., Am. J. Physiol., 248:E353-E362, 1985). Whole body glucose turnover was calculated as the ratio of the ^3H glucose infusion rate (dpm/kg/min) and arterial plasma glucose specific activity (dpm/mg). […]

In the case of `C#C[C@]1(O)CC[C@H]2[C@@H]3[C@@H](O)C=C4C[C@@H](O)CC[C@]4(C)[C@H]3CC[C@@]21C` [17α-ethynylandrost-5-ene-3β,7β,17β-triol], the maximum clinical score ([1]; at day 7) is reported as 5.1, the “clinical score at day 14” value ([1]; end of the protocol) is reported as 4.1 and the “glucose infusion rate compared to the vehicle control” value [2] is reported as “increased the glucose infusion rate”.
